Data reported in article PMC4456024 (Chemical biology & drug design, 2014).

Molecular target: cardiac troponin C (cNTnC) (Homo sapiens, UniProt P63316, C35S/C84S)
Test: 2D 1H, […]-HSQC NMR titration, […] fit
Format: binding

- Kd: 721 ± 16 µM
SMILES: Cc1ccc(C)c(N2CCN(c3ccncc3N)CC2)c1 [compound 6, 4-(4-(2,5-dimethylphenyl)-1-piperazinyl)-3-pyridinamine]
